Data as given in patent US10047051B2, “Substituted pyridines and method of use” (AbbVie S.á{acute over (.)}r.l., priority 2015, dated 2018).

Assays:
[1] = molecular target: T1, CFTR ΔF508 mutant (Homo sapiens, UniProt P13569, DEL508-508); assay: YFP-halide influx assay for the CFTR-ΔF508 mutation (CFBE41o- cells); format: cell-based; conditions: forskolin 10.67 μM; for EC50: from (1−F/F0) vs concentration plot
T1 construct: expressed in transfected cells; host or cells: CFBE41o- cells, adenoviral transduction
T1 sequence (P13569 with tags, fused parts or gaps DEL508-508): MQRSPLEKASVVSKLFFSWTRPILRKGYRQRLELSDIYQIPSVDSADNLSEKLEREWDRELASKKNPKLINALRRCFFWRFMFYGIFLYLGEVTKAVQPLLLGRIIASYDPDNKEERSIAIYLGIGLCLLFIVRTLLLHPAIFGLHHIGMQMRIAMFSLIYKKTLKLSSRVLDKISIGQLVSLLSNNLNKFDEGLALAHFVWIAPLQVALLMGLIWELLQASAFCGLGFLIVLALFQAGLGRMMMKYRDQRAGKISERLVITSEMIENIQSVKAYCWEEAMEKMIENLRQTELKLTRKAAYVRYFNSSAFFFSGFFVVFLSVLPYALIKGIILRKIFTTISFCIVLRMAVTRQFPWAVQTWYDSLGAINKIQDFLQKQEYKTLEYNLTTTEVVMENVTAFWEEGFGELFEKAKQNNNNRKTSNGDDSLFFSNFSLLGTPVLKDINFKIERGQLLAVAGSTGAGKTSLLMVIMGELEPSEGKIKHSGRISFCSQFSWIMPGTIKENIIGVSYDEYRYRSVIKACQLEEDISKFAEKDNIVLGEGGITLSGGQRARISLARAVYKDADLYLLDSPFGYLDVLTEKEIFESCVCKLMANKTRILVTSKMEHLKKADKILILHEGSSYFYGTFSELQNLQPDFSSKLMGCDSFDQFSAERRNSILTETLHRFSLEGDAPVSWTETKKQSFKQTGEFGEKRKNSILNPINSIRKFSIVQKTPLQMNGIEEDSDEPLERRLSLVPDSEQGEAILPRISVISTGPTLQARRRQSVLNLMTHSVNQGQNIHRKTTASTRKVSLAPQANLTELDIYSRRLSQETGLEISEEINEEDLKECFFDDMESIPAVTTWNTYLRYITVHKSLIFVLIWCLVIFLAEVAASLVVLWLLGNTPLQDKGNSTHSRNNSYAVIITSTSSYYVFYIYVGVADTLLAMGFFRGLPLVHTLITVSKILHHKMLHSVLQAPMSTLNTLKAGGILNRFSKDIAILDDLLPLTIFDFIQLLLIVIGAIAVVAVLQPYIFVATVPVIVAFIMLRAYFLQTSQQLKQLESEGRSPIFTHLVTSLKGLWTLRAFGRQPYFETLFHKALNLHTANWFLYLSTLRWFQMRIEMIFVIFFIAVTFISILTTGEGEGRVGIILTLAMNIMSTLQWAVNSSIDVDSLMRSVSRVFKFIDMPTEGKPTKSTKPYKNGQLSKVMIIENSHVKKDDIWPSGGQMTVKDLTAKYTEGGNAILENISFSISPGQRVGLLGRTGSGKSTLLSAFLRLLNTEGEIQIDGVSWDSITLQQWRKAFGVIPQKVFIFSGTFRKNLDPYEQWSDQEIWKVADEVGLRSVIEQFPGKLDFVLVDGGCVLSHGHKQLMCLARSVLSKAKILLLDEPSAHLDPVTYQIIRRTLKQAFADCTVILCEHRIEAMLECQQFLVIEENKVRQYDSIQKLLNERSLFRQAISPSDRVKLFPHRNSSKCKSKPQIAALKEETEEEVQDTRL
Source text: The YFP halide influx assay measured the functionality of the cystic fibrosis Transmembrane Conductance regulator (CFTR) channels in the cystic fibrosis bronchial epithelium cell line CFBE41o-. The assay was used to evaluate the capacity of compounds to increase the open probability of existing CFTR channels in the membrane. It makes use of the observation that the yellow fluorescent protein (YFP) variant YFP H148Q, I152L, F47L has its fluorescence substantially quenched by halide ions like Cl^− and I^− (Galietta, L. J. V., Haggie, P. M., Verkman, A. S., 2001. Green fluorescent protein-based halide indicators with improved chloride and iodide affinities. FEBS Lett. 499, 220-224. doi:10.1016/S0014-5793(01)02561-3; Nagai, T., Ibata, K., Park, E. S., Kubota, M., Mikoshiba, K., Miyawaki, A., 2002. A variant of yellow fluorescent protein with fast and efficient maturation for cell-biological applications. Nat. Biotechnol. 20, 87-90. doi: 10.1038/nbt0102-87).
For this purpose, CFBE41o-cells were seeded in 384 well plates (3000 CFBE cells/well). One day after seeding, the CFBE cells were transduced with adenoviral vectors that direct the expression of the CFTR ΔF508 mutant and of the YFP reporter. Cells were incubated at 27° C., 5% CO2 for 24 hours so as to allow for the proper folding and migration to the membrane of the CFTR channel or treated with a CFTR modulator during 24 hours at 37° C.
(§1) The I-induced quenching of fluorescence was recorded on an immediately after injection of iodide for 2 minutes on an FDSS/μCell (Hamamatsu). The capacity of a compound to increase the channel opening was directly correlated with the decrease in fluorescence, and was expressed as (1−(fluorescence after 36 seconds (F)/fluorescence before injection (F0))) and an EC50 was derived from a (1−F/F0) vs compound concentration plot.

[2] = molecular target: T2, CFTR G551D mutant (Homo sapiens, UniProt P13569, G551D); assay: YFP-halide influx assay for the CFTR-G551D mutation (HEK293 cells); format: cell-based; conditions: forskolin 10.67 μM
T2 construct: expressed in transfected cells; host or cells: HEK293 cells, reverse transfection with plasmids
T2 sequence (P13569 whole entry G551D): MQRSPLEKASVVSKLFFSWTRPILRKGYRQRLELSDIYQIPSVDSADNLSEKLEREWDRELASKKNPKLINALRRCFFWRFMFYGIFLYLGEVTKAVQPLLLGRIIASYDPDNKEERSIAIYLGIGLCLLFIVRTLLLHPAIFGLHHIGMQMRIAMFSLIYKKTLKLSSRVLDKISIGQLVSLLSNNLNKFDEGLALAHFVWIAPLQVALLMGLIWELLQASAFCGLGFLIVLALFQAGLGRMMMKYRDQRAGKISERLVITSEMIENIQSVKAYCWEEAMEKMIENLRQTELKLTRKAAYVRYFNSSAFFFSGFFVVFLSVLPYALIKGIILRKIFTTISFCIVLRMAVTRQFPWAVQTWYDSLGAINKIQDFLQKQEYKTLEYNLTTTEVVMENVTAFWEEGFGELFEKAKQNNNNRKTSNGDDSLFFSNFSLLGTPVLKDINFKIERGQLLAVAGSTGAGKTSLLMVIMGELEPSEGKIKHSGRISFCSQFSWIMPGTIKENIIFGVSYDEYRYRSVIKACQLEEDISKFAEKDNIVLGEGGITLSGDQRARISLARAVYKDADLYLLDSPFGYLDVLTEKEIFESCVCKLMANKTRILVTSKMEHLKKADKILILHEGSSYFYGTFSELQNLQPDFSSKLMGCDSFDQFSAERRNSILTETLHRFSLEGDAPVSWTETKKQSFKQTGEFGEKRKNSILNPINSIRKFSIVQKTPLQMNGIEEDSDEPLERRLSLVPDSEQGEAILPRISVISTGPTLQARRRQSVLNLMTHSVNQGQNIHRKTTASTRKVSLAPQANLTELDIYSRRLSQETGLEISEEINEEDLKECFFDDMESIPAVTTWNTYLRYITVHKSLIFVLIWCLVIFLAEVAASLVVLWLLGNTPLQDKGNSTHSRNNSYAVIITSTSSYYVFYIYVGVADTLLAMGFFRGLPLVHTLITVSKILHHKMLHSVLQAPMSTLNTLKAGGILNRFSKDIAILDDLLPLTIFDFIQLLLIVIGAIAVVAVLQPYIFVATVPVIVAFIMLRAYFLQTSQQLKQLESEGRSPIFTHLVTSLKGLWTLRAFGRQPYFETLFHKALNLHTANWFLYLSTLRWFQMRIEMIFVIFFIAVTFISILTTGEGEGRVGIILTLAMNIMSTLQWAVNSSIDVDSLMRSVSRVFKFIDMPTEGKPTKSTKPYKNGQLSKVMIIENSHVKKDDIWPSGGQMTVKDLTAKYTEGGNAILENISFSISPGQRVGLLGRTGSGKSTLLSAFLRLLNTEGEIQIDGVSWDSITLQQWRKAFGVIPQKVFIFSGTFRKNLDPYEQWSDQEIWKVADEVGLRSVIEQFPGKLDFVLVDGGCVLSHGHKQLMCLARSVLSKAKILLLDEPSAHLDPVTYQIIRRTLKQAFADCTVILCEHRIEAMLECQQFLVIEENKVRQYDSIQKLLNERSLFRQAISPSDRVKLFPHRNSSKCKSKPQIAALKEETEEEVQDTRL
Source text: The YFP halide influx assay measured the functionality of the cystic fibrosis Transmembrane Conductance regulator (CFTR) channels. The assay was used to evaluate the capacity of compounds to increase the channel opening of existing mutant CFTR channels in the membrane. It makes use of the observation that the yellow fluorescent protein (YFP) variant YFP H148Q, I152L, F47L has its fluorescence substantially quenched by halide ions like Cl^− and I^− (Galietta, L. J. V., Haggie, P. M., Verkman, A. S., 2001. Green fluorescent protein-based halide indicators with improved chloride and iodide affinities. FEBS Lett. 499, 220-224. doi:10.1016/S0014-5793(01)02561-3).
For this purpose, HEK293-cells were seeded in 96 well plates. During seeding, the cells were reverse-transfected with plasmid vectors that direct the expression of the CFTR G551D mutant and of the YFP reporter. Cells were incubated at 37° C., 5% CO2 for 24 hours so as to allow for sufficient expression of the CFTR protein.
as §1, with “I^−-induced” for “I-induced”, “recorded” for “recorded on an”, “I^−” for “iodide”, “7 seconds.” for “2 minutes on an FDSS/μCell (Hamamatsu).”, “7” for “36”

| % Activation [1] [%] | EC50 [1] [nM] | % Activation [2] [%] | EC50 [2] [nM] | Structure (SMILES) |
| --- | --- | --- | --- | --- |
| 91.8 | 140 | 49.3 | 1390 | CN(C)C(=O)C1CN(C(=O)c2ncc(S(=O)(=O)c3ccc(OC(F)(F)F)cc3)cc2N)C1 [Compound 62, 1-[(3-amino-5-{[4-(trifluoromethoxy)phenyl]sulfonyl}pyridin-2-yl)carbonyl]-N,N-dimethylazetidine-3-carboxamide] |
| 107.0 | 1.3 | 72.5 | 160 | Nc1cc(S(=O)(=O)c2ccc(C(F)(F)F)cc2)cnc1C(=O)NC[C@H](O)C(F)(F)F [Compound 64, 3-amino-N-[(2S)-3,3,3-trifluoro-2-hydroxypropyl]-5-{[4-(trifluoromethyl)phenyl]sulfonyl}pyridine-2-carboxamide] |
| 119.0 | 41.4 | 67.8 | 1160 | Nc1cc(S(=O)(=O)c2ccc(OC(F)(F)F)cc2)cnc1C(=O)N1CCC1 [Compound 65, (3-amino-5-{[4-(trifluoromethoxy)phenyl]sulfonyl}pyridin-2-yl)(azetidin-1-yl)methanone] |
| 106.0 | 12.5 | 60.8 | 1550 | Nc1cc(S(=O)(=O)c2ccc(OC(F)(F)F)cc2)cnc1C(=O)N1CC(CO)C1 [Compound 66, (3-amino-5-{[4-(trifluoromethoxy)phenyl]sulfonyl}pyridin-2-yl)[3-(hydroxymethyl)azetidin-1-yl]methanone] |
| 110.0 | 25.8 | 73.6 | 1590 | Nc1cc(S(=O)(=O)c2ccc(OC(F)(F)F)cc2)cnc1C(=O)N1CC(F)C1 [Compound 67, (3-amino-5-{[4-(trifluoromethoxy)phenyl]sulfonyl}pyridin-2-yl)(3-fluoroazetidin-1-yl)methanone] |
| 92.0 | 130 | 54.0 | 1820 | Nc1cc(S(=O)(=O)c2ccc(OC(F)(F)F)cc2)cnc1C(=O)N1CC2(COC2)C1 [Compound 68, (3-amino-5-{[4-(trifluoromethoxy)phenyl]sulfonyl}pyridin-2-yl)(2-oxa-6-azaspiro[3.3]hept-6-yl)methanone] |
| 102.0 | 5.7 | 85.0 | 1080 | COC[C@H](O)CNC(=O)c1ncc(S(=O)(=O)c2ccc(OC(F)(F)F)cc2)cc1N [Compound 69, 3-amino-N-[(2R)-2-hydroxy-3-methoxypropyl]-5-{[4-(trifluoromethoxy)phenyl]sulfonyl}pyridine-2-carboxamide] |
| 89.3 | 21.8 | 44.2 | > 3330 | Nc1cc(S(=O)(=O)c2ccc(F)cc2)cnc1C(=O)NCCC(O)C(F)(F)F (centres unmarked) [Compound 72, 3-amino-5-[(4-fluorophenyl)sulfonyl]-N-(4,4,4-trifluoro-3-hydroxybutyl)pyridine-2-carboxamide] |
| 102.0 | 81.4 | 61.0 | > 3330 | Nc1cc(S(=O)(=O)c2ccc(OC(F)(F)F)cc2)cnc1C(=O)NCC(O)C1CCOC1 (centres unmarked) [Compound 73, 3-amino-N-[2-hydroxy-2-(tetrahydrofuran-3-yl)ethyl]-5-{[4-(trifluoromethoxy)phenyl]sulfonyl}pyridine-2-carboxamide] |
| 112.0 | 4.3 | 54.3 | > 3330 | Nc1cc(S(=O)(=O)c2ccccc2OC(F)(F)F)cnc1C(=O)N1CC(O)C1 [Compound 76, (3-amino-5-{[2-(trifluoromethoxy)phenyl]sulfonyl}pyridin-2-yl)(3-hydroxyazetidin-1-yl)methanone] |
| 98.8 | 15.3 | 41.0 | > 3330 | Nc1cc(S(=O)(=O)c2ccc(OC(F)(F)F)cc2F)cnc1C(=O)N1CC(O)C1 [Compound 77, (3-amino-5-{[2-fluoro-4-(trifluoromethoxy)phenyl]sulfonyl}pyridin-2-yl) (3-hydroxyazetidin-1-yl)methanone] |
| 101.0 | 10.5 | 64.4 | 1940 | Nc1cc(S(=O)(=O)N2CCC(F)(F)CC2)cnc1C(=O)NCC(O)C(F)(F)F (centres unmarked) [Compound 84, 3-amino-5-[(4,4-difluoropiperidin-1-yl)sulfonyl]-N-(3,3,3-trifluoro-2-hydroxypropyl)pyridine-2-carboxamide] |
| 102.0 | 11.9 | 67.5 | 997 | CC(C)CC(O)CNC(=O)c1ncc(S(=O)(=O)c2ccc(OC(F)(F)F)cc2)cc1N (centres unmarked) [Compound 87, 3-amino-N-(2-hydroxy-4-methylpentyl)-5-{[4-(trifluoromethoxy)phenyl]sulfonyl}pyridine-2-carboxamide] |
| 96.0 | 12.4 | 82.0 | 762 | CCOCC(O)CNC(=O)c1ncc(S(=O)(=O)c2ccc(OC(F)(F)F)cc2)cc1N (centres unmarked) [Compound 88, 3-amino-N-(3-ethoxy-2-hydroxypropyl)-5-{[4-(trifluoromethoxy)phenyl]sulfonyl}pyridine-2-carboxamide] |
| 99.6 | 6.9 | 53.6 | > 3330 | CC1(O)CN(C(=O)c2ncc(S(=O)(=O)c3ccc(OC(F)(F)F)cc3)cc2N)C1 [Compound 89, (3-amino-5-{[4-(trifluoromethoxy)phenyl]sulfonyl}pyridin-2-yl)(3-hydroxy-3-methylazetidin-1-yl)methanone] |
| 101.0 | 4 | 86.8 | 216 | CC(C)OCC(O)CNC(=O)c1ncc(S(=O)(=O)c2ccc(OC(F)(F)F)cc2)cc1N (centres unmarked) [Compound 90, 3-amino-N-[2-hydroxy-3-(propan-2-yloxy)propyl]-5-{[4-(trifluoromethoxy)phenyl]sulfonyl}pyridine-2-carboxamide] |
| 102.0 | 22.2 | 43.4 | 1140 | CN(C1CC1)S(=O)(=O)c1cnc(C(=O)NCC(O)C(F)(F)F)c(N)c1 (centres unmarked) [Compound 94, 3-amino-5-[cyclopropyl(methyl)sulfamoyl]-N-(3,3,3-trifluoro-2-hydroxypropyl)pyridine-2-carboxamide] |
| 92.9 | 102 | 23.8 | > 10000 | Nc1cc(S(=O)(=O)N2CC(F)(F)C2)cnc1C(=O)NCC(O)C(F)(F)F (centres unmarked) [Compound 97, 3-amino-5-[(3,3-difluoroazetidin-1-yl)sulfonyl]-N-(3,3,3-trifluoro-2-hydroxypropyl)pyridine-2-carboxamide] |
| 95.6 | 7.4 | 60.2 | 685 | C[C@H](O)CNC(=O)c1ncc(S(=O)(=O)c2ccc(C(F)(F)F)cc2F)cc1N [Compound 98, 3-amino-5-{[2-fluoro-4-(trifluoromethyl)phenyl]sulfonyl}-N-[(2S)-2-hydroxypropyl]pyridine-2-carboxamide] |
| 106.5 | 64.2 | 71.2 | 1580 | Nc1cc(S(=O)(=O)c2ccc(C(F)(F)F)cc2)cnc1C(=O)NC[C@H]1CCOC1 [Compound 101, 3-amino-N-[(3R)-tetrahydrofuran-3-ylmethyl]-5-{[4-(trifluoromethyl)phenyl]sulfonyl}pyridine-2-carboxamide] |
